From patent US20240050428A1 (Cullgen (Shanghai), Inc., priority 2020, published 2024)
pIC50: −log10 of the molar value. Where two headings read alike, the source gives them in different places.

Assays:
[1] = system: MV4;11 cells; assay: Cell viability assay (CellTiter-Glo) in MV4;11 cells, alone or with gilteritinib; type: cell-based; conditions: Homo sapiens, MV4;11 cells, three days, CellTiter-Glo, read-out: MV4
[2] = system: MOLM-13 cells; assay: Cell viability assay (CellTiter-Glo) in MOLM-13 cells, alone or with gilteritinib; type: cell-based; conditions: Homo sapiens, MOLM-13 cells, three days, CellTiter-Glo
[3] = MV4-11, 72 h, compound alone (without gilteritinib), 11 IC50
[4] = MV4-11, 72 h, compound with gilteritinib 10 nM, 11 IC50 gilteritinib
[5] = MOLM-13, 72 h, compound alone (without gilteritinib), read-out: MOLM-13 IC50
[6] = MOLM-13, 72 h, compound with gilteritinib 20 nM, read-out: MOLM-13 IC50 gilteritinib

| SMILES | pIC50 ([1]; 72 h, compound alone (without gilteritinib), 11 IC50) | pIC50 ([1]; 72 h, compound with gilteritinib 10 nM, 11 IC50 gilteritinib) | pIC50 ([2]; 72 h, compound alone (without gilteritinib), read-out: MOLM-13 IC50) | pIC50 ([2]; 72 h, compound with gilteritinib 20 nM, read-out: MOLM-13 IC50 gilteritinib) | pIC50 [1, 3] | pIC50 [1, 4] | pIC50 [2, 5] | pIC50 [2, 6] |
| --- | --- | --- | --- | --- | --- | --- | --- | --- |
| CN1CCC(Nc2cccc(-c3cn([C@H]4C[C@H](CNc5ccc6c(c5)C(=O)N(C5CCC(=O)NC5=O)C6=O)C4)nc3C3CC3)n2)CC1 (stereo partly drawn) [GS-454, 5-(((trans-3-(3-cyclopropyl-4-(6-((1-methylpiperidin-4-yl)amino)pyridin-2-yl)-1H-pyrazol-1-yl)cyclobutyl)methyl)amino)-2-(2,6-dioxopiperidin-3-yl)isoindoline-1,3-dione] | < 6.00 | 6.00 to 7.00 | < 6.00 | 6.00 to 7.00 |  |  |  |  |
| O=C1CCC(N2C(=O)c3ccc(NC[C@H]4C[C@H](n5cc(N6CCNCC6)c(C6CC6)n5)C4)cc3C2=O)C(=O)N1 (stereo partly drawn) [GS-455, 5-(((trans-3-(3-cyclopropyl-4-(piperazin-1-yl)-1H-pyrazol-1-yl)cyclobutyl)methyl)amino)-2-(2,6-dioxopiperidin-3-yl)isoindoline-1,3-dione] |  |  |  |  | < 6.00 | < 6.00 | < 6.00 | < 6.00 |
| O=C1CCC(N2C(=O)c3ccc(NC[C@H]4C[C@H](n5cc(-c6ccc(Cl)cc6)c(C6CC6)n5)C4)cc3C2=O)C(=O)N1 (stereo partly drawn) [GS-456, 5-(((trans-3-(4-(4-chlorophenyl)-3-cyclopropyl-1H-pyrazol-1-yl)cyclobutyl)methyl)amino)-2-(2,6-dioxopiperidin-3-yl)isoindoline-1,3-dione] |  |  |  |  | 6.00 to 7.00 | 7.00 to 8.00 | < 6.00 | 7.00 to 8.00 |
| O=C1CCC(N2C(=O)c3ccc(NC[C@H]4C[C@H](n5cc(-c6cccc(Cl)c6)c(C6CC6)n5)C4)cc3C2=O)C(=O)N1 (stereo partly drawn) [GS-457, 5-(((trans-3-(4-(3-chlorophenyl)-3-cyclopropyl-1H-pyrazol-1-yl)cyclobutyl)methyl)amino)-2-(2,6-dioxopiperidin-3-yl)isoindoline-1,3-dione] |  |  |  |  | 7.00 to 8.00 | 7.00 to 8.00 | 6.00 to 7.00 | 7.00 to 8.00 |
| O=C1CCC(N2C(=O)c3ccc(NC[C@H]4C[C@H](n5cc(-c6ccccc6Cl)c(C6CC6)n5)C4)cc3C2=O)C(=O)N1 (stereo partly drawn) [GS-458, 5-(((trans-3-(4-(2-chlorophenyl)-3-cyclopropyl-1H-pyrazol-1-yl)cyclobutyl)methyl)amino)-2-(2,6-dioxopiperidin-3-yl)isoindoline-1,3-dione] |  |  |  |  | 7.00 to 8.00 | > 8.00 | 7.00 to 8.00 | > 8.00 |
| CN1CCN(c2cn([C@H]3C[C@H](CNc4ccc5c(c4)C(=O)N(C4CCC(=O)NC4=O)C5=O)C3)nc2C2CC2)CC1 (stereo partly drawn) [GS-459, 5-(((trans-3-(3-cyclopropyl-4-(4-methylpiperazin-1-yl)-1H-pyrazol-1-yl)cyclobutyl)methyl)amino)-2-(2,6-dioxopiperidin-3-yl)isoindoline-1,3-dione] |  |  |  |  | < 6.00 | < 6.00 | < 6.00 | < 6.00 |
| CN1CCC(c2cn([C@H]3C[C@H](CNc4ccc5c(c4)C(=O)N(C4CCC(=O)NC4=O)C5=O)C3)nc2C2CC2)CC1 (stereo partly drawn) [GS-460, 5-(((trans-3-(3-cyclopropyl-4-(1-methylpiperidin-4-yl)-1H-pyrazol-1-yl)cyclobutyl)methyl)amino)-2-(2,6-dioxopiperidin-3-yl)isoindoline-1,3-dione] |  |  |  |  | < 6.00 | < 6.00 | < 6.00 | < 6.00 |
| O=C1CCC(N2C(=O)c3ccc(CNC4CC(n5cc(-c6cnc7ccccc7n6)c(C6CC6)n5)C4)cc3C2=O)C(=O)N1 (centres unmarked) [GS-461, 5-(((3-(3-cyclopropyl-4-(quinoxalin-2-yl)-1H-pyrazol-1-yl)cyclobutyl)amino)methyl)-2-(2,6-dioxopiperidin-3-yl)isoindoline-1,3-dione] |  |  |  |  | < 6.00 | < 6.00 | < 6.00 | < 6.00 |
| COc1ccc(-c2cnn([C@H]3C[C@H](CCCNc4ccc5c(c4)C(=O)N(C4CCC(=O)NC4=O)C5=O)C3)c2)nc1 (stereo partly drawn) [GS-462, 2-(2,6-dioxopiperidin-3-yl)-5-((3-(trans-3-(4-(5-methoxypyridin-2-yl)-1H-pyrazol-1-yl)cyclobutyl)propyl)amino)isoindoline-1,3-dione] |  |  |  |  | 6.00 to 7.00 | 7.00 to 8.00 | 6.00 to 7.00 | 7.00 to 8.00 |
| CN1CCN(c2ccc3ncc(-c4cn([C@H]5C[C@H](CNc6ccc7c(c6)C(=O)N(C6CCC(=O)NC6=O)C7=O)C5)nc4C4CC4)nc3c2)CC1 (stereo partly drawn) [GS-463, 5-(((trans-3-(3-cyclopropyl-4-(7-(4-methylpiperazin-1-yl)quinoxalin-2-yl)-1H-pyrazol-1-yl)cyclobutyl)methyl)amino)-2-(2,6-dioxopiperidin-3-yl)isoindoline-1,3-dione] |  |  |  |  | 7.00 to 8.00 | > 8.00 | 7.00 to 8.00 | > 8.00 |
| O=C1CCC(N2C(=O)c3ccc(NC[C@H]4C[C@H](n5cc(-c6cnc7ccc(N8CCOCC8)cc7n6)c(C6CC6)n5)C4)cc3C2=O)C(=O)N1 (stereo partly drawn) [GS-464, 5-(((trans-3-(3-cyclopropyl-4-(7-morpholinoquinoxalin-2-yl)-1H-pyrazol-1-yl)cyclobutyl)methyl)amino)-2-(2,6-dioxopiperidin-3-yl)isoindoline-1,3-dione] |  |  |  |  | > 8.00 | > 8.00 | > 8.00 | > 8.00 |
| Cn1cccc(-c2cn([C@H]3C[C@H](CNc4ccc5c(c4)C(=O)N(C4CCC(=O)NC4=O)C5=O)C3)nc2C2CC2)c1=O (stereo partly drawn) [GS-465, 5-(((trans-3-(3-cyclopropyl-4-(1-methyl-2-oxo-1,2-dihydropyridin-3-yl)-1H-pyrazol-1-yl)cyclobutyl)methyl)amino)-2-(2,6-dioxopiperidin-3-yl)isoindoline-1,3-dione] |  |  |  |  | < 6.00 | 6.00 to 7.00 | < 6.00 | 7.00 to 8.00 |
| O=C1CCC(N2C(=O)c3ccc(NC[C@H]4C[C@H](n5cc(-c6cccc(C7CC7)n6)c(C6CC6)n5)C4)cc3C2=O)C(=O)N1 (stereo partly drawn) [GS-466, 5-(((trans-3-(3-cyclopropyl-4-(6-cyclopropylpyridin-2-yl)-1H-pyrazol-1-yl)cyclobutyl)methyl)amino)-2-(2,6-dioxopiperidin-3-yl)isoindoline-1,3-dione] |  |  |  |  | 7.00 to 8.00 | 7.00 to 8.00 | 6.00 to 7.00 | 7.00 to 8.00 |
| O=C1CCC(N2C(=O)c3ccc(NC[C@H]4C[C@H](n5cc(-c6ncccc6C6CC6)c(C6CC6)n5)C4)cc3C2=O)C(=O)N1 (stereo partly drawn) [GS-467, 5-(((trans-3-(3-cyclopropyl-4-(3-cyclopropylpyridin-2-yl)-1H-pyrazol-1-yl)cyclobutyl)methyl)amino)-2-(2,6-dioxopiperidin-3-yl)isoindoline-1,3-dione] |  |  |  |  | 7.00 to 8.00 | > 8.00 | 7.00 to 8.00 | 7.00 to 8.00 |
| O=C1CCC(N2C(=O)c3ccc(NC[C@H]4C[C@H](n5cc(C6CCCCC6)c(C6CC6)n5)C4)cc3C2=O)C(=O)N1 (stereo partly drawn) [GS-468, 5-(((trans-3-(4-cyclohexyl-3-cyclopropyl-1H-pyrazol-1-yl)cyclobutyl)methyl)amino)-2-(2,6-dioxopiperidin-3-yl)isoindoline-1,3-dione] |  |  |  |  | 7.00 to 8.00 | 7.00 to 8.00 | 6.00 to 7.00 | 7.00 to 8.00 |
| O=C1CCC(N2C(=O)c3ccc(CCN4CC(n5cc(-c6cnc7ccccc7n6)c(C6CC6)n5)C4)cc3C2=O)C(=O)N1 (centres unmarked) [GS-469, 5-(2-(3-(3-cyclopropyl-4-(quinoxalin-2-yl)-1H-pyrazol-1-yl)azetidin-1-yl)ethyl)-2-(2,6-dioxopiperidin-3-yl)isoindoline-1,3-dione] |  |  |  |  | < 6.00 | < 6.00 | < 6.00 | < 6.00 |
| O=C1CCC(N2C(=O)c3ccc(NC[C@H]4C[C@H](n5nc(C6CC6)c6cccnc65)C4)cc3C2=O)C(=O)N1 (stereo partly drawn) [GS-470, 5-(((trans-3-(3-cyclopropyl-1H-pyrazolo[3,4-b]pyridin-1-yl)cyclobutyl)methyl)amino)-2-(2,6-dioxopiperidin-3-yl)isoindoline-1,3-dione] |  |  |  |  | 7.00 to 8.00 | > 8.00 | 7.00 to 8.00 | > 8.00 |
| O=C1CCC(N2C(=O)c3ccc(NC[C@H]4C[C@H](n5cc(-c6cccc(OC7CC7)n6)c(C6CC6)n5)C4)cc3C2=O)C(=O)N1 (stereo partly drawn) [GS-471, 5-(((trans-3-(4-(6-cyclopropoxypyridin-2-yl)-3-cyclopropyl-1H-pyrazol-1-yl)cyclobutyl)methyl)amino)-2-(2,6-dioxopiperidin-3-yl)isoindoline-1,3-dione] |  |  |  |  | 7.00 to 8.00 | 7.00 to 8.00 | 6.00 to 7.00 | 7.00 to 8.00 |
| CN1CCCC(c2cn([C@H]3C[C@H](CNc4ccc5c(c4)C(=O)N(C4CCC(=O)NC4=O)C5=O)C3)nc2C2CC2)C1 (stereo partly drawn) [GS-472, 5-(((trans-3-(3-cyclopropyl-4-(1-methylpiperidin-3-yl)-1H-pyrazol-1-yl)cyclobutyl)methyl)amino)-2-(2,6-dioxopiperidin-3-yl)isoindoline-1,3-dione] |  |  |  |  | < 6.00 | < 6.00 | < 6.00 | < 6.00 |
| O=C1CCC(N2C(=O)c3ccc(NC[C@H]4C[C@H](n5nc(C6CC6)c6ccncc65)C4)cc3C2=O)C(=O)N1 (stereo partly drawn) [GS-473, 5-(((trans-3-(3-cyclopropyl-1H-pyrazolo[3,4-c]pyridin-1-yl)cyclobutyl)methyl)amino)-2-(2,6-dioxopiperidin-3-yl)isoindoline-1,3-dione] |  |  |  |  | < 6.00 | < 6.00 | < 6.00 | < 6.00 |
